Laboratory results taken from ChEMBL document CHEMBL2073841, “ATP-dependent transport of aflatoxin B1 and its glutathione conjugates by the product of the multidrug resistance protein (MRP) gene” (Mol Pharmacol, 1997).

Target: MRP1 (Multidrug resistance-associated protein 1) (Homo sapiens, UniProt P33527)
Assay: TP_TRANSPORTER: uptake in membrane vesicle from MRP1-expressing HeLa cells
Assay type: functional, cell membranes
Conditions: membrane vesicles from MRP1-expressing HeLa cells

MRP1 (Multidrug resistance-associated protein 1), sequence (P33527 whole entry): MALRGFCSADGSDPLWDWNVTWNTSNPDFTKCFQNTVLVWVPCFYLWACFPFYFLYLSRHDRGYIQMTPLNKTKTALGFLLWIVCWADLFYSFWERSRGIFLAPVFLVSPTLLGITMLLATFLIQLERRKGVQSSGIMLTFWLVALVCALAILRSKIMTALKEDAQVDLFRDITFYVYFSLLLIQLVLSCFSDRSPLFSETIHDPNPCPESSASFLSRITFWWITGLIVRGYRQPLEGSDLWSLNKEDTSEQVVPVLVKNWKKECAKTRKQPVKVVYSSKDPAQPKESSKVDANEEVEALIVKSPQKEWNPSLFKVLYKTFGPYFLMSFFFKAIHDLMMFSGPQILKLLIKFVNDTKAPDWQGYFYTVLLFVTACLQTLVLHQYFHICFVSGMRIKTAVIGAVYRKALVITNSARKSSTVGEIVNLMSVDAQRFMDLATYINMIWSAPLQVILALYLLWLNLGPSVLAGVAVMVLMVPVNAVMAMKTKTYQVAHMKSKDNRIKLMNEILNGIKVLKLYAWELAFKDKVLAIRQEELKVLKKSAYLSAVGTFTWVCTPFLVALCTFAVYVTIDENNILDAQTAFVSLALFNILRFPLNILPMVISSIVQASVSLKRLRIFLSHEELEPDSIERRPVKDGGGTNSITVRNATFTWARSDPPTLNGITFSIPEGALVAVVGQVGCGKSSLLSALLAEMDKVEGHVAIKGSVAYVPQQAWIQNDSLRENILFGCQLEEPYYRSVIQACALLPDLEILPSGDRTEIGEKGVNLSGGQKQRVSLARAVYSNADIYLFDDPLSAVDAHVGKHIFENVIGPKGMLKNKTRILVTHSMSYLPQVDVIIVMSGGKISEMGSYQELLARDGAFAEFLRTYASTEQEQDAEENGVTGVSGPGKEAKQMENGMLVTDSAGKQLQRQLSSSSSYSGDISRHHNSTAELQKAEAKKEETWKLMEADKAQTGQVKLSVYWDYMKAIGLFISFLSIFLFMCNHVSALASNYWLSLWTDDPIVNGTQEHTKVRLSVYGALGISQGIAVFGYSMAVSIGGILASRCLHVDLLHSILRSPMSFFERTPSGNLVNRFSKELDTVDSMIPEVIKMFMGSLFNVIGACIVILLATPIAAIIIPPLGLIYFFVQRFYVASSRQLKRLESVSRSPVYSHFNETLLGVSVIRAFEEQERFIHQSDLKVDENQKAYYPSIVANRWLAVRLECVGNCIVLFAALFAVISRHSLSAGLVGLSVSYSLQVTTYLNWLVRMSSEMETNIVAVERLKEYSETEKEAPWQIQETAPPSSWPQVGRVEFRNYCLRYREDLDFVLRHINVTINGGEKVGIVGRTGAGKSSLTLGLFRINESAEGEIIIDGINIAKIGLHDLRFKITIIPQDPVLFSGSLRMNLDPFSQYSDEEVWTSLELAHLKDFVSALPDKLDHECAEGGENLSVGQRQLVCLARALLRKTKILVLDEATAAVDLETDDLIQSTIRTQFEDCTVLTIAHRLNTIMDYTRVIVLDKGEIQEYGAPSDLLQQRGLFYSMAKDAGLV

COc1cc2c(c3oc(=O)c4c(c13)CCC4=O)[C@H]1[C@@H](O2)O[C@H](SC[C@@H](NC(=O)CC[C@H](N)C(=O)O)C(=O)NCC(=O)O)[C@H]1O
Km: 0.189 µM
